Reference: ChEMBL document CHEMBL1125332, “Synthesis and biological evaluation of 5'-sulfamoylated purinyl carbocyclic nucleosides” (J Med Chem, 1992)
≈ marks a conversion by molar mass, not a printed value.

Test system: P388
Assay: Cytotoxicity against P388 mouse leukemia cells
Type: functional, cell-based

SMILES	IC50 [µg/mL]
CN(C)c1ncnc2c1ncn2C1CC(COS(N)(=O)=O)C(O)C1O (centres undefined)	74 (≈ 199 µM)
Nc1ncnc2c1ncn2COCCOS(N)(=O)=O	> 100
Nc1ncnc2c1nnn2C1CC(CO)C(O)C1O (centres undefined)	0.5 (≈ 1.88 µM)
CSc1ncnc2c1ncn2C1CC(COS(N)(=O)=O)C(O)C1O (centres undefined)	50 (≈ 133 µM)
CNc1ncnc2c1ncn2C1CC(COS(N)(=O)=O)C(O)C1O (centres undefined)	4 (≈ 11.2 µM)
Nc1ncnc2c1nnn2C1CC(COS(N)(=O)=O)C(O)C1O (centres undefined)	0.0625 (≈ 0.181 µM)
Nc1ncnc2c1ncn2C1CC(COS(N)(=O)=O)C(O)C1O (centres undefined)	0.125 (≈ 0.363 µM)
Nc1ncnc2c1ncn2[C@@H]1C[C@H](CO)[C@@H](O)[C@H]1O [ARISTEROMYCIN]	0.5 (≈ 1.88 µM)
COc1ccc(C[C@H](N)C(=O)N[C@H]2[C@@H](O)[C@H](n3cnc4c(N(C)C)ncnc43)O[C@@H]2CO)cc1 [PUROMYCIN]	0.5 (≈ 1.06 µM)
